Test results taken from ChEMBL document CHEMBL4229412, “Design, synthesis, in vitro and in vivo evaluation, and structure-activity relationship (SAR) discussion of novel dipeptidyl boronic acid proteasome inhibitors as orally available anti-cancer agents for the treatment of multiple myeloma and mechanism studies” (Bioorg Med Chem, 2018).

Assay: in vivo
Conditions: Sprague-Dawley, rat, po, 1.2 mg/kg

bioavailability: 27.8%
Compound: CC(C)C[C@H](NC(=O)CNC(=O)c1cc(Cl)ccc1Cl)B(O)O [IXAZOMIB]
